Data as given in ChEMBL document CHEMBL1649173, “Single-dose escalation and multiple-dose safety, tolerability, and pharmacokinetics of IDX899, a candidate human immunodeficiency virus type 1 nonnucleoside reverse transcriptase inhibitor, in healthy subjects” (Antimicrob Agents Chemother, 2009).

How the values were obtained:
[1] = Trough plasma concentration in healthy human at 800 mg, po qd after 1 day; format: ADME, organism-based; settings: read-out: Cmin
[2] = AUC (0 to infinity) in healthy human at 800 mg, po qd after 7 days; format: ADME, organism-based; design: dose 800 mg, route oral, time infinity; settings: plasma
[3] = Cmax in fed state healthy human at 200 mg, po administered as single dose; format: ADME, organism-based; design: dose 200 mg, route oral; settings: in vivo
[4] = Cmax in fasted state healthy human at 50 mg, po administered as single dose; format: ADME, organism-based; design: dose 50 mg, route oral; settings: in vivo
Homo sapiens [5] = experiment: Toxicity in healthy human assessed as incidence of adverse events at 400 mg, po bid and 800 mg, po qd for 7 days; format: organism-based; settings: in vivo, 168 h
[6] = Tmax in fed state healthy human at 1200 mg, po administered as single dose; format: ADME, organism-based; settings: in vivo
[7] = Apparent total plasma clearance in fed state healthy human at 200 mg, po administered as single dose; format: ADME, organism-based
[8] = Half life in fasted state healthy human at 200 mg, po administered as single dose; format: ADME, organism-based; settings: in vivo
[9] = Half life in fasted state healthy human at 400 mg, po administered as single dose; format: ADME, organism-based; settings: in vivo
[10] = AUC (0 to infinity) in fasted state healthy human at 200 mg, po administered as single dose; format: ADME, organism-based; design: dose 200 mg, time infinity, route oral; settings: plasma
[11] = Tmax in fasted state healthy human at 50 mg, po administered as single dose; format: ADME, organism-based; settings: in vivo
[12] = Apparent total plasma clearance in healthy human at 800 mg, po qd after 1 day; format: ADME, organism-based
[13] = Half life in fed state healthy human at 1200 mg, po administered as single dose; format: ADME, organism-based; settings: in vivo
[14] = Half life in fed state healthy human at 200 mg, po administered as single dose; format: ADME, organism-based; settings: in vivo
[15] = Tmax in healthy human at 800 mg, po qd after 1 day; format: ADME, organism-based; settings: in vivo
Homo sapiens [16] = experiment: Toxicity in healthy human assessed as occurrence of nausea at 50 to 1200 mg, po administered as single dose; format: organism-based; settings: in vivo
[17] = Apparent total plasma clearance in fasted state healthy human at 50 mg, po administered as single dose; format: ADME, organism-based
[18] = Cmax in healthy human at 800 mg, po qd after 1 day; format: ADME, organism-based; design: dose 800 mg, route oral; settings: in vivo
Homo sapiens [19] = experiment: Toxicity in healthy human assessed as occurrence of dizziness at 50 to 1200 mg, po administered as single dose; format: organism-based; settings: in vivo
[20] = Apparent total volume of distribution in fed state healthy human at 800 mg, po administered as single dose; format: ADME, organism-based; settings: in vivo, read-out: Vz/F
[21] = Plasma concentration in fasted state healthy human at 200 mg, po administered as single dose after 24 hrs; format: ADME, organism-based
[22] = Apparent total volume of distribution in healthy human at 400 mg, po bid after 7 days; format: ADME, organism-based; settings: in vivo, read-out: Vz/F
[23] = Plasma concentration in fed state female healthy human at 400 mg, po administered as single dose after 24 hrs; format: ADME, organism-based
[24] = Apparent total volume of distribution in fed state female healthy human at 400 mg, po administered as single dose; format: ADME, organism-based; settings: in vivo, read-out: Vz/F
[25] = Trough plasma concentration in healthy human at 400 mg, po bid after 7 days; format: ADME, organism-based; settings: read-out: Cmin
[26] = Half life in fasted state healthy human at 100 mg, po administered as single dose; format: ADME, organism-based; settings: in vivo
[27] = Apparent total volume of distribution in fasted state healthy human at 100 mg, po administered as single dose; format: ADME, organism-based; settings: in vivo, read-out: Vz/F
[28] = AUC (0 to infinity) in fed state healthy human at 400 mg, po administered as single dose; format: ADME, organism-based; design: dose 400 mg, route oral, time infinity; settings: plasma
[29] = Cmax in healthy human at 400 mg, po bid after 7 days; format: ADME, organism-based; design: dose 400 mg, route oral; settings: in vivo
[30] = Oral bioavailability in human; format: ADME, organism-based; settings: in vivo
Homo sapiens [31] = experiment: Toxicity in healthy human assessed as occurrence of head ache at 50 to 1200 mg, po administered as single dose; format: organism-based; settings: in vivo
[32] = AUC (0 to infinity) in fed state female healthy human at 400 mg, po administered as single dose; format: ADME, organism-based; design: dose 400 mg, time infinity, route oral; settings: plasma
[33] = Apparent total volume of distribution in fasted state healthy human at 50 mg, po administered as single dose; format: ADME, organism-based; settings: in vivo, read-out: Vz/F
[34] = Plasma concentration in fasted state healthy human at 100 mg, po administered as single dose after 24 hrs; format: ADME, organism-based
Homo sapiens [35] = experiment: Toxicity in healthy human assessed as occurrence of pollakiuria at 50 to 1200 mg, po administered as single dose; format: organism-based; settings: in vivo
[36] = Tmax in fasted state healthy human at 100 mg, po administered as single dose; format: ADME, organism-based; settings: in vivo
[37] = Cmax in fed state healthy human at 800 mg, po administered as single dose; format: ADME, organism-based; design: dose 800 mg, route oral; settings: in vivo
[38] = AUC (0 to infinity) in fed state healthy human at 800 mg, po administered as single dose; format: ADME, organism-based; design: dose 800 mg, time infinity, route oral; settings: plasma
[39] = Tmax in healthy human at 400 mg, po bid after 7 days; format: ADME, organism-based; settings: in vivo
[40] = Cmax in fed state healthy human at 1200 mg, po administered as single dose; format: ADME, organism-based; design: dose 1200 mg, route oral; settings: in vivo
[41] = Apparent total volume of distribution in fasted state healthy human at 400 mg, po administered as single dose; format: ADME, organism-based; settings: in vivo, read-out: Vz/F
[42] = Tmax in fasted state healthy human at 400 mg, po administered as single dose; format: ADME, organism-based; settings: in vivo
[43] = Cmax in fed state healthy human at 400 mg, po administered as single dose; format: ADME, organism-based; design: dose 400 mg, route oral; settings: in vivo
[44] = AUC (0 to infinity) in healthy human at 800 mg, po qd after 1 day; format: ADME, organism-based; design: dose 800 mg, time infinity, route oral; settings: plasma
[45] = Apparent total plasma clearance in fasted state healthy human at 100 mg, po administered as single dose; format: ADME, organism-based
[46] = Apparent total volume of distribution in fed state healthy human at 1200 mg, po administered as single dose; format: ADME, organism-based; settings: in vivo, read-out: Vz/F
[47] = Apparent total plasma clearance in fed state healthy human at 1200 mg, po administered as single dose 0; format: ADME, organism-based
[48] = Half life in healthy human at 400 mg, po bid after 7 days; format: ADME, organism-based; settings: in vivo
[49] = Apparent total plasma clearance in fasted state healthy human at 200 mg, po administered as single dose; format: ADME, organism-based
[50] = AUC (0 to infinity) in fasted state healthy human at 100 mg, po administered as single dose; format: ADME, organism-based; design: dose 100 mg, time infinity, route oral; settings: plasma

COP(=O)(c1cc(C)cc(/C=C/C#N)c1)c1c(C(N)=O)[nH]c2ccc(Cl)cc12 (stereo not given) gave a concentration at 24 h [1] of 0.9 µg/mL, an AUC(0-inf) [2] of 54.6 µg·h/mL and a Cmax [3] of 1.3 µg/mL. It also gave a Cmax [4] of 1.6 µg/mL, an Activity (Homo sapiens [5]) of 43.8% and a Tmax [6] of 10.1 h. It also gave a CL/F [7] of 230 mL/min, a half-life [8] of 11.9 h and a half-life [9] of 14.6 h. The AUC(0-inf) [10] was 7.1 µg·h/mL, the Tmax [11] was 1.5 h and the CL/F [12] was 252 mL/min. It also gave a half-life [13] of 7.9 h, a half-life [14] of 9.5 h and a Tmax [15] of 4 h. For the same compound, the Activity (Homo sapiens [16]) was 4.1%, the CL/F [17] was 103 mL/min and the Cmax [18] was 4.9 µg/mL. The Activity (Homo sapiens [19]) was 2%, the Vd/F [20] was 301 L and the concentration at 24 h [21] was 0.07 µg/mL. The Vd/F [22] was 236 L, the concentration at 24 h [23] was 0.29 µg/mL and the Vd/F [24] was 329 L. For the same compound, the concentration at 168 h [25] was 2.1 µg/mL, the half-life [26] was 6.8 h and the Vd/F [27] was 66.3 L. It also gave an AUC(0-inf) [28] of 36 µg·h/mL, a Cmax [29] of 4 µg/mL and a bioavailability [30] of 61%. For the same compound, the Activity (Homo sapiens [31]) was 8.2%, the AUC(0-inf) [32] was 26.5 µg·h/mL and the Vd/F [33] was 53.3 L. It also gave a concentration at 24 h [34] of 0.09 µg/mL, an Activity (Homo sapiens [35]) of 0% and a Tmax [36] of 1.5 h. The Cmax [37] was 3 µg/mL, the AUC(0-inf) [38] was 47.2 µg·h/mL and the Tmax [39] was 4 h. For the same compound, the Cmax [40] was 5.6 µg/mL, the Vd/F [41] was 606 L and the Tmax [42] was 1.8 h. For the same compound, the Cmax [43] was 2.4 µg/mL, the AUC(0-inf) [44] was 68 µg·h/mL and the CL/F [45] was 118 mL/min. The Vd/F [46] was 134 L, the CL/F [47] was 197 mL/min and the half-life [48] was 12.3 h. It also gave a CL/F [49] of 555 mL/min and an AUC(0-inf) [50] of 15.8 µg·h/mL.
